Results on 17 compounds are retold here after patent US9474758B2, “Thienopyrimidinedione derivatives as TRPA1 modulators” (Glenmark Pharmaceuticals S.A., priority 2009, dated 2016).

SMILES strings stand for the structures.

In assay [1] the target is T1, Rat TRPA1 expressing CHO cells (Rattus norvegicus, UniProt Q6RI86).
T1 construct: expressed in transfected cells; host or cells: CHO cells (Zeocin selection)
The assay can be described thus: 45Calcium uptake assay, inhibition of AITC induced calcium uptake (rat). In kind it is cell-based. Conditions: rat TRPA1 CHO cells, AITC 10 μM; for inhibition at 1 µM: compound 1.0 μM, read-out: Percentage inhibition at 1.0 μM; for inhibition at 10 µM: compound 10.0 μM, read-out: Percentage inhibition at 10.0 μM; for IC50: read-out: Rat IC50 value (Range). Summed up: (§1)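 CHO cells expressing rat or human TRPA1 were pre-treated with compound for 10 min, then given AITC (30 μM human, 10 μM rat) plus 5 μCi/ml 45Ca2+ for 3 min; final DMSO 0.5%. Lysate radioactivity was counted by scintillation. IC50 came from nonlinear regression of concentration-response curves as % of maximal response.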

Assay [2] deals with T2, Human TRPA1 expressing CHO cells (Homo sapiens, UniProt O75762).
T2 construct: expressed in transfected cells; host or cells: CHO cells (G-418 selection)
T2 sequence (O75762 whole entry): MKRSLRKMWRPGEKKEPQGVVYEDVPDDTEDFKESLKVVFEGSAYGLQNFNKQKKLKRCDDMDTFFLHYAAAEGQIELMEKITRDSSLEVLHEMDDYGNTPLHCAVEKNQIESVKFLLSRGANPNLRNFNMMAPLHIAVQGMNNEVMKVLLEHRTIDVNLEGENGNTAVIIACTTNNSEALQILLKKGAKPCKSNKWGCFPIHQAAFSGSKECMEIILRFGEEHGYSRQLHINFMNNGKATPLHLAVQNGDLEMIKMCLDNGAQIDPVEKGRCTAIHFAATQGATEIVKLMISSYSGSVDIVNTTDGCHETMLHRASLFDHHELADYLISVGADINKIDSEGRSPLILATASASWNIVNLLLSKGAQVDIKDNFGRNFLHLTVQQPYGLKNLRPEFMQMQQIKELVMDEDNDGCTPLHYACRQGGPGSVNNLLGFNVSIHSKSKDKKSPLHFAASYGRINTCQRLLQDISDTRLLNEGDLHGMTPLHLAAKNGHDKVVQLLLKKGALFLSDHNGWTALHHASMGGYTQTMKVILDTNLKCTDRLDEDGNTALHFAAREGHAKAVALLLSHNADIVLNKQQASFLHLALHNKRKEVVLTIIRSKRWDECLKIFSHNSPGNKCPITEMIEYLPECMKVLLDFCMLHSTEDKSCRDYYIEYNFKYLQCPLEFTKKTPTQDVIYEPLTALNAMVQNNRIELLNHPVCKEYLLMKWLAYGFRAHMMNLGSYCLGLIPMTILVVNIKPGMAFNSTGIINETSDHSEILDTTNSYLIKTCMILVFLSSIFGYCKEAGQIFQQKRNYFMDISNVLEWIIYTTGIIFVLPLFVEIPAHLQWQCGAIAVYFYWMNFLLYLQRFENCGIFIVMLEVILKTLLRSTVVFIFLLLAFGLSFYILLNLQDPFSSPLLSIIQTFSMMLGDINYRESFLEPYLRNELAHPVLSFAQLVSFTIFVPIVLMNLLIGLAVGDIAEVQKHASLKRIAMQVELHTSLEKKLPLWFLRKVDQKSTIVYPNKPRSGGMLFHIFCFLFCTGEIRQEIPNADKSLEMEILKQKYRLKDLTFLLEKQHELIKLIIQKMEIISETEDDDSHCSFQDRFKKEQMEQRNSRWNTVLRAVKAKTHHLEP
The assay can be described thus: 45Calcium uptake assay, inhibition of AITC induced calcium uptake (human). In kind it is cell-based. Conditions: human TRPA1 CHO cells, AITC 30 μM; for inhibition at 1 µM: compound 1.0 μM, read-out: Percentage inhibition at 1.0 μM; for inhibition at 10 µM: compound 10.0 μM, read-out: Percentage inhibition at 10.0 μM; for IC50: read-out: Human IC50 value (Range). An outline of the steps: as §1

T1 sequence (Q6RI86 whole entry): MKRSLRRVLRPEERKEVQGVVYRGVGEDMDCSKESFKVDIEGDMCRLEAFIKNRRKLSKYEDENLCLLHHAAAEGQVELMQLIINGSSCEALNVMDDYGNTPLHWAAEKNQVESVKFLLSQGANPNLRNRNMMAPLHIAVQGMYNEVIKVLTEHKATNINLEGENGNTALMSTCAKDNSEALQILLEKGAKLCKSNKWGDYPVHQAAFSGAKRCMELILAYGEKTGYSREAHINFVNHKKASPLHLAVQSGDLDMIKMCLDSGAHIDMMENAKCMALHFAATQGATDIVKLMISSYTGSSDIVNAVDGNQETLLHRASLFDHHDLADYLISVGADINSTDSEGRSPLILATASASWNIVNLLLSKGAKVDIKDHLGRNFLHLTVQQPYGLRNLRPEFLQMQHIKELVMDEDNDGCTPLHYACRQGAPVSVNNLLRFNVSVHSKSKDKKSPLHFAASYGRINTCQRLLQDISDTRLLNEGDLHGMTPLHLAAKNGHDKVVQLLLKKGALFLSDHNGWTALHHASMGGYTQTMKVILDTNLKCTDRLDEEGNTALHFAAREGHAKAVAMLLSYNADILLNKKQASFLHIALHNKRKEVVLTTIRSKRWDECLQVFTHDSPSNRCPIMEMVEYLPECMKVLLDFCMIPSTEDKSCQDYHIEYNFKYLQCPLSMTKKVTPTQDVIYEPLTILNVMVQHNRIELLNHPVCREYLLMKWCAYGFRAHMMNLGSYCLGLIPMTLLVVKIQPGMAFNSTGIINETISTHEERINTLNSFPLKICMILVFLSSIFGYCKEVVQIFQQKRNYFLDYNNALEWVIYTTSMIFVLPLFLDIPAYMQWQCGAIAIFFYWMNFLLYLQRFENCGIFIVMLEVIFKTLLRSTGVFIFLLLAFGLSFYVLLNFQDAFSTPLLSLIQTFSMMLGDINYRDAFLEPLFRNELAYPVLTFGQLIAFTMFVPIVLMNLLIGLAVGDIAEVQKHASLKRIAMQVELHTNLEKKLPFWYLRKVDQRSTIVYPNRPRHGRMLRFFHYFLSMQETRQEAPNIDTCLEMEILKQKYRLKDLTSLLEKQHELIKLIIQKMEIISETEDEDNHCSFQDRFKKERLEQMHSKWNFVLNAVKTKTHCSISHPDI

On to `Cn1c(=O)c2c(CC(=O)Nc3nc(-c4cc(F)cc(C(F)(F)F)c4)cs3)csc2n(C)c1=O` [Example 8, 2-(1,3-Dimethyl-2,4-dioxo-1,2,3,4-tetrahydrothieno[2,3-d]pyrimidin-5-yl)-N-{4-[3-fluoro-5-(trifluoromethyl)phenyl]-1,3-thiazol-2-yl}acetamide], for which, in assay [1], the inhibition (in general, the share of the control response that was lost under treatment) at 1 µM worked out at 95.5%; the inhibition at 10 µM came out at 100%; the IC50 (as a rule, the point on the concentration scale where inhibition reaches its midpoint) lay within 50 to 500 nM. Also, in assay [2], the inhibition at 1 µM turned out to be 89.8%, the inhibition at 10 µM is 99.9% and the IC50 was < 50 nM.

On to `CCc1sc2c(c1CC(=O)Nc1nc(-c3ccc(C#N)cc3)cs1)c(=O)n(C)c(=O)n2C` [Example 30, N-[4-(4-Cyanophenyl)-1,3-thiazol-2-yl]-2-(6-ethyl-1,3-dimethyl-2,4-dioxo-1,2,3,4-tetrahydrothieno[2,3-d]pyrimidin-5-yl)acetamide], for which, in assay [1], the inhibition at 1 µM came to 46.4% and the inhibition at 10 µM came to 83.6%. In assay [2], the inhibition at 1 µM is 88.9%, the inhibition at 10 µM worked out at 98.4% and the IC50 lay in the range of 50 to 500 nM.

For the compound `Cn1c(=O)c2c(CC(=O)Nc3nc(-c4ccc(F)c(C(F)(F)F)c4)cs3)csc2n(C)c1=O` [Example 6, 2-(1,3-Dimethyl-2,4-dioxo-1,2,3,4-tetrahydrothieno[2,3-d]pyrimidin-5-yl)-N-{4-[4-fluoro-3-(trifluoromethyl)phenyl]-1,3-thiazol-2-yl}acetamide], in assay [1], the inhibition at 1 µM worked out at 99.7%, the inhibition at 10 µM was 99.9% and the IC50 fell in the range of 50 to 500 nM. Further, in assay [2], the inhibition at 1 µM was 100%, the inhibition at 10 µM was determined as 100% and the IC50 is < 50 nM.

In the case of `CC(C)Cc1ccc(-c2csc(NC(=O)Cc3scc4c3c(=O)n(C)c(=O)n4C)n2)cc1` [Example 44, 2-(1,3-Dimethyl-2,4-dioxo-1,2,3,4-tetrahydrothieno[3,4-d]pyrimidin-5-yl)-N-[4-(4-isobutylphenyl)-1,3-thiazol-2-yl]acetamide], in assay [1], the inhibition at 1 µM was 84.1% and the inhibition at 10 µM amounted to 95.3%. Besides, in assay [2], the inhibition at 1 µM was 91.4%, the inhibition at 10 µM amounted to 93.2% and the IC50 is 50 to 500 nM.

For `Cn1c(=O)c2c(CC(=O)Nc3nc(-c4ccc(OC(F)(F)F)c(F)c4)cs3)scc2n(C)c1=O` [Example 52, 2-(1,3-Dimethyl-2,4-dioxo-1,2,3,4-tetrahydrothieno[3,4-d]pyrimidin-5-yl)-N-{4-[3-fluoro-4-(trifluoromethoxy)phenyl]-1,3-thiazol-2-yl}acetamide], in assay [1], the inhibition at 1 µM was 92.3%, the inhibition at 10 µM stood at 98.1% and the IC50 is 50 to 500 nM. Further, in assay [2], the inhibition at 1 µM worked out at 98%, the inhibition at 10 µM was determined as 94.4% and the concentration for half-maximal inhibition (IC50) was < 50 nM.

As to `Cc1sc2c(c1CC(=O)Nc1nc(-c3ccc(Cl)cc3)cs1)c(=O)n(C)c(=O)n2C` [Example 19, N-[4-(4-Chlorophenyl)-1,3-thiazol-2-yl]-2-(1,3,6-trimethyl-2,4-dioxo-1,2,3,4-tetrahydrothieno[2,3-d]pyrimidin-5-yl)acetamide], in assay [1], the inhibition at 1 µM was determined as 89.4% and the inhibition at 10 µM is 99.2%. In addition, in assay [2], the inhibition at 1 µM was 95%, the inhibition at 10 µM came out at 98.2% and the IC50 lay in the range of 50 to 500 nM.

With `CCCc1sc2c(c1CC(=O)Nc1nc(-c3ccc(C(F)(F)F)c(F)c3)cs1)c(=O)n(C)c(=O)n2C` [Example 35, N-{4-[3-Fluoro-4-(trifluoromethyl)phenyl]-1,3-thiazol-2-yl}-2-(1,3-dimethyl-2,4-dioxo-6-propyl-1,2,3,4-tetrahydrothieno[2,3-d]pyrimidin-5-yl) acetamide], in assay [1], the inhibition at 1 µM was determined as 90.1%, the inhibition at 10 µM worked out at 98.3% and the IC50 fell in the range of 50 to 500 nM. Moreover, in assay [2], the inhibition at 1 µM was found to be 99.1%, the inhibition at 10 µM was 100% and the 50% inhibitory concentration (IC50) was < 50 nM.

Turning to `Cc1sc2c(c1CC(=O)Nc1nc(-c3ccc(Cl)c(Cl)c3)cs1)c(=O)n(C)c(=O)n2C` [Example 20, N-[4-(3,4-Dichlorophenyl)-1,3-thiazol-2-yl]-2-(1,3,6-trimethyl-2,4-dioxo-1,2,3,4-tetrahydrothieno[2,3-d]pyrimidin-5-yl)acetamide], in assay [1], the inhibition at 1 µM was 83.4%, the inhibition at 10 µM was found to be 91.2% and the IC50 was in the range of 50 to 500 nM. Moreover, in assay [2], the inhibition at 1 µM came to 99%, the inhibition at 10 µM worked out at 99.6% and the half-inhibitory concentration (IC50) was < 50 nM.

For the compound `Cn1c(=O)c2c(CC(=O)Nc3nc(-c4ccc(F)c(C(F)(F)F)c4)cs3)scc2n(C)c1=O` [Example 49, 2-(1,3-Dimethyl-2,4-dioxo-1,2,3,4-tetrahydrothieno[3,4-d]pyrimidin-5-yl)-N-{4-[4-fluoro-3-(trifluoromethyl)phenyl]-1,3-thiazol-2-yl}acetamide], in assay [1], the inhibition at 1 µM worked out at 89.9%, the inhibition at 10 µM worked out at 99% and the IC50 was in the range of 50 to 500 nM. Further, in assay [2], the inhibition at 1 µM came to 96%, the inhibition at 10 µM was 99.8% and the IC50 is < 50 nM.

`Cc1sc2c(c1CC(=O)Nc1nc(-c3ccc(F)cc3F)cs1)c(=O)n(C)c(=O)n2C` [Example 22, N-[4-(2,4-Difluorophenyl)-1,3-thiazol-2-yl]-2-(1,3,6-trimethyl-2,4-dioxo-1,2,3,4-tetrahydrothieno[2,3-d]pyrimidin-5-yl)acetamide]: in assay [1], the inhibition at 1 µM worked out at 89.8% and the inhibition at 10 µM worked out at 99.8%. In assay [2], the inhibition at 1 µM came out at 89.8%, the inhibition at 10 µM was found to be 100% and the IC50 is 50 to 500 nM.

With `Cn1c(=O)c2c(CC(=O)Nc3nc(-c4ccc(C(F)(F)F)cc4)cs3)scc2n(C)c1=O` [Example 47], in assay [1], the inhibition at 1 µM was found to be 88.9% and the inhibition at 10 µM was determined as 99.6%. Also, in assay [2], the inhibition at 1 µM worked out at 97.9%, the inhibition at 10 µM was 98.8% and the half-maximal inhibitory concentration (IC50) is < 50 nM.

In the case of `Cn1c(=O)c2c(CC(=O)Nc3nc(-c4cc(F)c(OCC(F)(F)F)c(F)c4)cs3)scc2n(C)c1=O` [Example 60, N-{4-[3,5-Difluoro-4-(2,2,2-trifluoro-ethoxy)phenyl]-1,3-thiazol-2-yl}-2-(1,3-dimethyl-2,4-dioxo-1,2,3,4-tetrahydrothieno[3,4-d]pyrimidin-5-yl)acetamide], in assay [1], the inhibition at 1 µM amounted to 21% and the inhibition at 10 µM was determined as 95.9%. Moreover, in assay [2], the inhibition at 1 µM stood at 98%, the inhibition at 10 µM is 97.4% and the IC50 was < 50 nM.

In the case of `Cc1sc2c(c1CC(=O)Nc1nc(-c3cccc(F)c3F)cs1)c(=O)n(C)c(=O)n2C` [Example 21, N-[4-(2,3-Difluorophenyl)-1,3-thiazol-2-yl]-2-(1,3,6-trimethyl-2,4-dioxo-1,2,3,4-tetrahydrothieno[2,3-d]pyrimidin-5-yl)acetamide], in assay [1], the inhibition at 1 µM came to 93.5% and the inhibition at 10 µM turned out to be 99.7%. Further, in assay [2], the inhibition at 1 µM was found to be 95.4%, the inhibition at 10 µM came out at 100% and the IC50 was 50 to 500 nM.

For `CCc1sc2c(c1CC(=O)Nc1nc(-c3cc(F)c(OC(F)F)c(F)c3)cs1)c(=O)n(C)c(=O)n2C` [Example 33, N-{4-[4-(Difluoromethoxy)-3,5-difluorophenyl]-1,3-thiazol-2-yl}-2-(6-ethyl-1,3-dimethyl-2,4-dioxo-1,2,3,4-tetrahydrothieno[2,3-d]pyrimidin-5-yl)acetamide], in assay [1], the inhibition at 1 µM came to 96.5%, the inhibition at 10 µM worked out at 97.3% and the IC50 lay in the range of 50 to 500 nM. In assay [2], the inhibition at 1 µM amounted to 96.9%, the inhibition at 10 µM turned out to be 96.9% and the half-inhibitory concentration (IC50) was < 50 nM.

Regarding `Cn1c(=O)c2c(CC(=O)Nc3nc(-c4cccc(OC(F)(F)F)c4)cs3)scc2n(C)c1=O` [Example 48, 2-(1,3-Dimethyl-2,4-dioxo-1,2,3,4-tetrahydrothieno[3,4-d]pyrimidin-5-yl)-N-{4-[3-(trifluoromethoxy)phenyl]-1,3-thiazol-2-yl}acetamide], in assay [1], the inhibition at 1 µM amounted to 92.5% and the inhibition at 10 µM was 100%. For the same compound, in assay [2], the inhibition at 1 µM was 95.5%, the inhibition at 10 µM is 98.9% and the IC50 was in the range of 50 to 500 nM.

For `Cn1c(=O)c2c(CC(=O)Nc3nc(-c4ccc(C(F)(F)F)c(F)c4)cs3)scc2n(C)c1=O` [Example 50, 2-(1,3-Dimethyl-2,4-dioxo-1,2,3,4-tetrahydrothieno[3,4-d]pyrimidin-5-yl)-N-{4-[3-fluoro-4-(trifluoromethyl)phenyl]-1,3-thiazol-2-yl}acetamide], in assay [1], the inhibition at 1 µM was 57.4% and the inhibition at 10 µM was 99.1%. Also, in assay [2], the inhibition at 1 µM came out at 99.5%, the inhibition at 10 µM was 100% and the 50% inhibitory concentration (IC50) is < 50 nM.

For `Cn1c(=O)c2c(CC(=O)Nc3nc(-c4ccc(C(F)(F)F)cc4F)cs3)scc2n(C)c1=O` [Example 51, 2-(1,3-Dimethyl-2,4-dioxo-1,2,3,4-tetrahydrothieno[3,4-d]pyrimidin-5-yl)-N-{4-[2-fluoro-4-(trifluoromethyl)phenyl]-1,3-thiazol-2-yl}acetamide], in assay [1], the inhibition at 1 µM came out at 93%, the inhibition at 10 µM stood at 100% and the IC50 was 50 to 500 nM. Besides, in assay [2], the inhibition at 1 µM was 96.9%, the inhibition at 10 µM stood at 99.7% and the 50% inhibitory concentration (IC50) is < 50 nM.
